SMILES strings stand for the structures.

The test system of this assay is TNF alpha release from human PBMCs. Put plainly: Inhibition of TNF alpha release from human PBMCs. To be noted: PBMC, LPS 1 μg/ml, 18 hours, AlphaLISA. In kind it is cell-based. How it is done:
PBMC were isolated from fresh buffy coats by density centrifugation using lymphoprep (Medinor AB, cat no 1019818) tubes. Isolated PBMCs were washed in assay medium (RPMI1640 with 25 mM HEPES, 1% pen/strep, 200 mM L glutamine and 10% Foetal calf serum). Surplus PBMCs were frozen in medium containing extra 10% foetal calf serum and 5% DMSO. On the assay day, fresh cells or cryopreserved cells after thawing were washed in serum free medium (RPMI1640 with 25 mM HEPES, 1% pen/strep, 200 mM L glutamine and 0.5% human serum albumin) and counted, in order to determine the fraction of living cells (generally >95%).
Test compounds were diluted in DMSO over seven orders of magnitude, further diluted in serum-free medium and distributed into wells of 384 well tissue culture plates. LPS was added to a final concentration of 1 μg/ml to the cells. Immediately thereafter titrated test compounds were added and incubated for 18 hours at 37° C.
The level of TNF-a in the culture supernatant was quantitated by AlphaLISA (Perkin Elmer). 2-(3,5-dichloro-4-pyridinyl)-1-(7-methoxyspiro[1,3-benzodioxole-2,1′-cyclopentan]-4-yl)-ethanone (CAS 185406-34-2) at 100×IC50 was used to define the assay window.
Data were processed by sigmoidal curve fitting. EC50 and Emax were determined from the curve fits.
In general terms: In Alpha technology, singlet oxygen from a donor bead excites a nearby acceptor bead.
In turn, `Cc1ccc([C@@H](Oc2ccc(C(=O)N[C@@H]3CCCN(C(=O)[C@@H]4COC(=O)C4)C3)nc2)[C@H](C)NC(=O)C(F)(F)F)cc1` [Compound 60, N-[(3R)-1-[(3S)-5-oxotetrahydrofuran-3-carbonyl]-3-piperidyl]-5-[(1R,2S)-1-(p-tolyl)-2-[(2,2,2-trifluoroacetyl)amino]propoxy]pyridine-2-carboxamide] returned an EC50 of less than 100 nM.
`Cc1ccc([C@@H](Oc2ccc(C(=O)N[C@@H]3CCCN(C(=O)[C@@H]4CCC(=O)O4)C3)nc2)[C@H](C)NC(=O)C(F)(F)F)cc1` [Compound 61, N-[(3R)-1-[(2S)-5-oxotetrahydrofuran-2-carbonyl]-3-piperidyl]-5-[(1R,2S)-1-(p-tolyl)-2-[(2,2,2-trifluoroacetyl)amino]propoxy]pyridine-2-carboxamide] showed an EC50 of 100 to 300 nM.
`Cc1ccc([C@@H](Oc2ccc(C(=O)N[C@@H]3CCCN(C(=O)[C@H]4CCC(=O)O4)C3)nc2)[C@H](C)NC(=O)C(F)(F)F)cc1` [Compound 62, N-[(3R)-1-[(2R)-5-oxotetrahydrofuran-2-carbonyl]-3-piperidyl]-5-[(1R,2S)-1-(p-tolyl)-2-[(2,2,2-trifluoroacetyl)amino]propoxy]pyridine-2-carboxamide]: the concentration giving a half-maximal response (EC50) is less than 100 nM.
Take `Cc1ccc([C@@H](Oc2ccc(C(=O)N[C@H]3CCCN(C(=O)[C@@H]4COC(=O)C4)C3)nc2)[C@H](C)NC(=O)C(F)(F)F)cc1` [Compound 63, N-[(3S)-1-[(3S)-5-oxotetrahydrofuran-3-carbonyl]-3-piperidyl]-5-[(1R,2S)-1-(p-tolyl)-2-[(2,2,2-trifluoroacetyl)amino]propoxy]pyridine-2-carboxamide]: the concentration giving a half-maximal response (EC50) is less than 100 nM.
Molecule `Cc1ccc([C@@H](Oc2ccc(C(=O)N[C@H]3CCCN(C(=O)[C@@H]4CCC(=O)O4)C3)nc2)[C@H](C)NC(=O)C(F)(F)F)cc1` [Compound 64, N-[(3S)-1-[(2S)-5-oxotetrahydrofuran-2-carbonyl]-3-piperidyl]-5-[(1R,2S)-1-(p-tolyl)-2-[(2,2,2-trifluoroacetyl)amino]propoxy]pyridine-2-carboxamide] came in with a 50% effective concentration (EC50) of less than 100 nM.
Turning to `Cc1ccc([C@@H](Oc2ccc(C(=O)O[C@H]3CCCN(C(=O)[C@H]4COC(=O)C4)C3)cc2)[C@H](C)NC(=O)C(F)(F)F)cc1` [Compound 70, [(3S)-1-[(3R)-5-oxotetrahydrofuran-3-carbonyl]-3-piperidyl] 4-[(1R,2S)-1-(p-tolyl)-2-[(2,2,2-trifluoroacetyl)amino]propoxy]benzoate], the 50% effective concentration (EC50) is less than 100 nM.
As to `Cc1ccc([C@H](Oc2ccc(C(=O)N[C@H]3CCCN(C(=O)[C@@H]4COC(=O)C4)C3)nc2)[C@H](C)NC(=O)C(F)(F)F)cc1` [Compound 80, N-[(3S)-1-[(3S)-5-oxotetrahydrofuran-3-carbonyl]-3-piperidyl]-5-[(1S,2S)-1-(p-tolyl)-2-[(2,2,2-trifluoroacetyl)amino]propoxy]pyridine-2-carboxamide], the 50% effective concentration (EC50) is less than 100 nM.
Molecule `Cc1ccc([C@H](Oc2ccc(C(=O)N[C@H]3CCCN(C(=O)[C@H]4COC(=O)C4)C3)nc2)[C@H](C)NC(=O)C(F)(F)F)cc1` [Compound 81, N-[(3S)-1-[(3R)-5-oxotetrahydrofuran-3-carbonyl]-3-piperidyl]-5-[(1S,2S)-1-(p-tolyl)-2-[(2,2,2-trifluoroacetyl)amino]propoxy]pyridine-2-carboxamide] returned an EC50 of less than 100 nM.
`C[C@@H]1C[C@H]2[C@@H]3CCC4=CC(=O)C=C[C@]4(C)[C@@]3(F)[C@@H](O)C[C@]2(C)[C@@]1(O)C(=O)CO` [Dexamethasone, reference compound]: the EC50 is less than 100 nM.

As usually defined, the EC50 is the concentration needed to bring the measured effect to its halfway point.

Source of the values: US10494363B2, “Non-steroidal glucocorticoid receptor modulators for local drug delivery” (LEO PHARMA A/S, priority 2015, dated 2019).
